Experimental data reported in patent publication US10231966B2, “Combination therapy for treating pulmonary hypertension” (priority 2016, dated 2019).
Where two headings read alike, the source gives them in different places.

What was measured:
pPDGFRβ (Y1021) [1] = molecular target: T1, pPDGFRβ (Y1021) (Rattus norvegicus, UniProt Q05030); assay: Western blot of pPDGFRβ (Y1021) in lung lysates of rats with pulmonary hypertension after inhaled Compound 1; type: in vivo; conditions: pPDGFRβ (Y1021) vs total PDGFRβ
T1 construct: Lung tissue samples were homogenized in pH 7.4 lysis buffer; from tissue; host or cells: rat lung (male SD rats)
T1 sequence (Q05030 32-1097): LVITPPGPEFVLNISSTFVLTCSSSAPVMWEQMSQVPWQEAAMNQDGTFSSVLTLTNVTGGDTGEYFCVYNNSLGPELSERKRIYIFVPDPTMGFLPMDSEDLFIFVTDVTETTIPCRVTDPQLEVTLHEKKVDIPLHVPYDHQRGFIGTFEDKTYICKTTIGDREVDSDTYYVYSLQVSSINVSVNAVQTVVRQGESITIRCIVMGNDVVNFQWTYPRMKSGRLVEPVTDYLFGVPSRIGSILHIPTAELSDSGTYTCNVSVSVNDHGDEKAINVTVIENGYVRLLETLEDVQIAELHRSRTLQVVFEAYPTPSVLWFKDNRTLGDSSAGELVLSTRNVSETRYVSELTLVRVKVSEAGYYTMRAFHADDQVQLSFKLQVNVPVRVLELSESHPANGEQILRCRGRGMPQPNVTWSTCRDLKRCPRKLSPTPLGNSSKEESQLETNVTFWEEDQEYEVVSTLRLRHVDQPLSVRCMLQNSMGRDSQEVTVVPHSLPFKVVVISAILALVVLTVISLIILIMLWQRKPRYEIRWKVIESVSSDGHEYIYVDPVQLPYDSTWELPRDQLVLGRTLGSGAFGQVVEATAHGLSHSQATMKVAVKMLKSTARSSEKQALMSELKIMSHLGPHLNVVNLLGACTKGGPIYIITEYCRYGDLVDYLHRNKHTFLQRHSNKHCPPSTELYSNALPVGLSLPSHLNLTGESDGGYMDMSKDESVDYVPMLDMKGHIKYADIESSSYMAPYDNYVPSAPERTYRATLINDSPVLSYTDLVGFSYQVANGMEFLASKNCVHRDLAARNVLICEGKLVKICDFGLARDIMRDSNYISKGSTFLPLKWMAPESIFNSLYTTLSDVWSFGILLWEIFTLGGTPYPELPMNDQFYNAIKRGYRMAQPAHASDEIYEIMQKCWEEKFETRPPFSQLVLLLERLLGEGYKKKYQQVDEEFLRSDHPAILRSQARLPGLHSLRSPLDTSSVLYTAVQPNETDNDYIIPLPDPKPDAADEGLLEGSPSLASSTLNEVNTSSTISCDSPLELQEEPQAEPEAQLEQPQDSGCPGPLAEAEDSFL

[2] = test system: AAV-PDGFB overexpression SU5416 hypoxia rat model of PH; assay: AAV-PDGFB SU5416 hypoxia study: RVSP, right ventricular hypertrophy, lumen/media ratio; type: in vivo
PDGFB gene expression = assay: PDGFB lung gene expression (RT-qPCR) in the AAV-PDGFB SU5416 hypoxia rat model; type: in vivo; conditions: RT-qPCR normalized to 18S, 4 weeks treatment
Procedure: Four weeks later, 20 mg/kg of semaxanib (SU5416) was administered using intraperitoneal (i.p.) injection, and the rats were housed in a hypoxia chamber at fraction of inspired oxygen (FiO2) 10% for 3 weeks. […] Daily treatments were administered starting day 2 after removing the rats from the hypoxia chamber and were continued for 4 weeks (28 days). RNA from lung tissue was isolated using TRIzol™ reagent. The RNA concentration was measured using a Nanodrop™ 1000 Spectrophotometer. Equal amounts of RNA of each sample were transcribed to cDNA using a high-capacity cDNA Reverse Transcription kit. Reverse transcription (RT)-qPCR reactions were set up using TaqMan™ Gene Expression Master Mix and TaqMan™ primers/probes for PDGFB and 18S. The gene expression assay was carried out using a QuantStudio™ 6 Flex system. Gene expression was normalized to the expression of 18S, which was used as a housekeeping gene.

[3] = molecular target: T2, phosphorylated PDGFRβ (Y1021) (Rattus norvegicus, UniProt Q05030); assay: Immunohistochemistry of lung sections for pPDGFRβ in the AAV-PDGFB SU5416 hypoxia model; type: in vivo; conditions: vs V-V and TA-V
T2 construct: from tissue; host or cells: rat lung (male SD rats)
T2 sequence (Q05030 32-1097): as above
Procedure: (§1) Four weeks later, 20 mg/kg of semaxanib (SU5416) was administered using intraperitoneal (i.p.) injection, and the rats were housed in a hypoxia chamber at fraction of inspired oxygen (FiO2) 10% for 3 weeks. […] Daily treatments were administered starting day 2 after removing the rats from the hypoxia chamber and were continued for 4 weeks (28 days). Antigen retrieval was performed using heat-induced epitope retrieval. Immunohistochemistry of lung sections was performed for PDGFBB, total PDGFRα, total PDGFRβ, pPDGFRα, and pPDGFRβ. Signal detection was performed with an EXPOSE horseradish peroxidase/diaminobenzidine (HRP/DAB) kit.

[4] = molecular target: T3, phosphorylated PDGFRα (Y751) (Rattus norvegicus, UniProt P20786); assay: Immunohistochemistry of lung sections for pPDGFRα in the AAV-PDGFB SU5416 hypoxia model; type: in vivo; conditions: vs V-V and TA-V
T3 construct: from tissue; host or cells: rat lung sections (male SD rats)
T3 sequence (P20786 24-1088): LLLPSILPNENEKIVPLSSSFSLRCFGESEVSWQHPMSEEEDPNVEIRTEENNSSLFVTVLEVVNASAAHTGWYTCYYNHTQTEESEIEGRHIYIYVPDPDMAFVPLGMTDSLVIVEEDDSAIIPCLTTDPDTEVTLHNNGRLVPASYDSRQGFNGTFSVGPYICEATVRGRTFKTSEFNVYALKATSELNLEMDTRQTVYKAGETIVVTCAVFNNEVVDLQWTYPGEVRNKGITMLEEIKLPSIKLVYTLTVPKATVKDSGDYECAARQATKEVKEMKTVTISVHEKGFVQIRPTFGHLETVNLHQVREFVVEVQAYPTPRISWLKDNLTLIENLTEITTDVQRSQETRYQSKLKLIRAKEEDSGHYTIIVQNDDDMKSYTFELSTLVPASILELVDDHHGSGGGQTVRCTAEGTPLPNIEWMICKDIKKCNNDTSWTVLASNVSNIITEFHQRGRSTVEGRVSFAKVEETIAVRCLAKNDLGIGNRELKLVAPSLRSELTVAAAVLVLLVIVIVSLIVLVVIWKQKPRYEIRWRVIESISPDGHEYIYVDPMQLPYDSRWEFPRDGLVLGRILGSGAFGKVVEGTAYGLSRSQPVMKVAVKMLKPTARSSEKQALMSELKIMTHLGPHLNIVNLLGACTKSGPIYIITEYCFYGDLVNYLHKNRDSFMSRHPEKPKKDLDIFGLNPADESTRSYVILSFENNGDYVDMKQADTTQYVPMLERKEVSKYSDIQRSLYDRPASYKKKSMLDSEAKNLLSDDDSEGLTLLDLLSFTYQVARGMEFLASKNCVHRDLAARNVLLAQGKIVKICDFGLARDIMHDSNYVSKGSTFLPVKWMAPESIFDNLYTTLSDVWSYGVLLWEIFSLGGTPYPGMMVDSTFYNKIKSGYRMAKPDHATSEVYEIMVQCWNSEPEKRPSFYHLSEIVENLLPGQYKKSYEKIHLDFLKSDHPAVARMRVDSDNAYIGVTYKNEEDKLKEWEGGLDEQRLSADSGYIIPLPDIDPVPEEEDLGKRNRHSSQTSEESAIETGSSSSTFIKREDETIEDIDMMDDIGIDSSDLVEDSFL
Procedure: as §1

pPDGFRβ (Y1021) [5] = molecular target: T1, pPDGFRβ (Y1021); assay: Western blot of lung pPDGFRβ (Y1021) in the AAV-PDGFB SU5416 hypoxia model; type: in vivo; conditions: vs V-V and TA-V, total PDGFRβ and β actin controls
Procedure: Four weeks later, 20 mg/kg of semaxanib (SU5416) was administered using intraperitoneal (i.p.) injection, and the rats were housed in a hypoxia chamber at fraction of inspired oxygen (FiO2) 10% for 3 weeks. […] Daily treatments were administered starting day 2 after removing the rats from the hypoxia chamber and were continued for 4 weeks (28 days). […] Lysates were normalized and separated on 7.5% or 12% polyacrylamide gels and transferred to nitrocellulose membranes. After blocking, the membranes were probed with one of the following antibodies: anti-PDGFRβ, anti-phospho ([…])-PDGFRβ, pMYPT, MYPT, pSTAT3, or STAT3. The samples were incubated overnight on a shaker, followed by a 1 hour incubation with secondary antibodies conjugated with HRP. Bound antibodies were detected by chemiluminescence using an enhanced chemiluminescence (ECL) detection system, and quantified by densitometry using a Licor C-Digit® Blot Scanner.

PDGFRβ = PDGFRβ (Homo sapiens, UniProt P09619); conditions: human lung fibroblasts
PDGFRβ, sequence (P09619 33-1106): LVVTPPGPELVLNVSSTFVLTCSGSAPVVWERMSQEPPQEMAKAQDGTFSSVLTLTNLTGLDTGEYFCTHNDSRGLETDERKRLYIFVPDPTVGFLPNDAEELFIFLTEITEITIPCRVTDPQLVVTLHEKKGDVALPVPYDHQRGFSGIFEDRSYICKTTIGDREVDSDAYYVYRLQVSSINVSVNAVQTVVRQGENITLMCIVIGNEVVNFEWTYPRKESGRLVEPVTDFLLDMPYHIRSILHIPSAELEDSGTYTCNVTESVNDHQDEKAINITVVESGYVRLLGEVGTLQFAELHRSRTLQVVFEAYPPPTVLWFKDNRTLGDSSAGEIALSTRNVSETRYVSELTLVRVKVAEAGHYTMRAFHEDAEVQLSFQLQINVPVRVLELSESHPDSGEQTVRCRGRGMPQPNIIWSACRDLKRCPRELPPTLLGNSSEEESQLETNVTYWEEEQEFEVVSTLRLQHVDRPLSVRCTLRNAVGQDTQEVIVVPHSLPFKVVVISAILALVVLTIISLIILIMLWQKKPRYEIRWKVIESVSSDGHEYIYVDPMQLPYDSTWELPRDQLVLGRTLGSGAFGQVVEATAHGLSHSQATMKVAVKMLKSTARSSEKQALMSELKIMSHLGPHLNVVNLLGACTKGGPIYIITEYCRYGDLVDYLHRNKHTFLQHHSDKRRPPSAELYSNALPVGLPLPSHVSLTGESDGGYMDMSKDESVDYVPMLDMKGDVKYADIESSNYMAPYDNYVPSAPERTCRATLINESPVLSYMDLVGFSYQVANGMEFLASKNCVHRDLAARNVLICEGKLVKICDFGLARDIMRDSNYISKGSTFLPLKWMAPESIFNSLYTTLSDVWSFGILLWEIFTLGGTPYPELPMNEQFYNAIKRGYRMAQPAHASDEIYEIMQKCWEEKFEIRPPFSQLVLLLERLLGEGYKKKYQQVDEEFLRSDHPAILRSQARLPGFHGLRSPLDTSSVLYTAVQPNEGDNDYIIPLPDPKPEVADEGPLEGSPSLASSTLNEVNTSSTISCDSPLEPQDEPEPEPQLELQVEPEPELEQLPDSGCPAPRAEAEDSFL

[6] = rat, in vivo, 0.4 mg/kg
in vivo = conditions: male, Sprague Dawley, rat
[7] = test system: rat monocrotaline model of PAH; conditions: background statement; cited from earlier work
[8] = test system: PDGFRβ isoform, PDGFRα isoform; conditions: background statement; cited from earlier work
[9] = test system: patients with advanced PAH; conditions: background statement; cited from earlier work
[10] = inhaled or intranasal, 0.4 mg/kg

COc1ccc(-c2cncc(N[C@@H](C)c3cccc(NC(=O)c4cncc(C)c4)c3)n2)cc1OC [Compound 1]
pPDGFRβ levels in lung compared to animals treated with the vehicle (pPDGFRβ (Y1021) [1]): decreased pPDGFRβ levels
lumen/media ratio of pulmonary arterioles ([2]; H&E lung sections, four weeks treatment, mean±SEM): 0.76±0.04
AVG RVSP ([2]; Table 4, four weeks treatment): 44.30 mm Hg
% Reduction RVSP ([2]; Table 4, vs V-V): 29%
decrease of RV/(LV+IVS) ratio compared to the vehicle (V-V) group ([2]; four weeks treatment): 25%
decrease of RVSP compared to vehicle (V-V) ([2]; four weeks treatment): 29%
RVSP ([2]; four weeks, tadalafil 10 mg/kg and ambrisentan 10 mg/kg gavage once daily, Compound 1 0.6 mg/kg inhaled twice daily, mean±SEM): 44.3±1.9 mm Hg
right ventricular hypertrophy, RV/(LV+IVS) ([2]; ratio of RV weight to LV plus interventricular septum weight, four weeks treatment, mean±SEM): 0.36±0.01
effect on levels of PDGFB gene expression (PDGFB gene expression): did not affect levels of PDGFB gene expression significantly
phosphorylated PDGFRβ (Y1021) in the lungs [3]: decrease
phosphorylated PDGFRα (Y751) in the lungs [4]: decrease
pPDGFRβ (Y1021) in the lungs (pPDGFRβ (Y1021) [5]): decreases
fold more potent than imatinib at inhibiting PDGFB-stimulated phosphorylation of PDGFRβ (PDGFRβ): about 2.5 fold
maximum arterial and venous average concentrations ([6]; male, Sprague Dawley): about 1 μg/mL
time after administration at which average arterial and venous concentrations reached zero ([6]; male, Sprague Dawley): about 400 minutes
AUC(0-inf) ([6]; inhaled or intranasal): 25403.578 µg·min/g
AUC(0-t) ([6]; inhaled or intranasal): 23583.976 µg·min/g
Kp (in vivo; 0.4 mg/kg): 20 to 80
AUC(0-inf) (in vivo; [10]): 2130 ng·h/mL
AUC(0-t) (in vivo; [10]): 1940 ng·h/mL
half-life (in vivo; inhaled or intranasal, terminal half-life in lung (t1/2β)): 6.43 h
half-life (in vivo; inhaled or intranasal, terminal half-life in plasma): 2.08 h

Cc1ccc(NC(=O)c2ccc(CN3CCN(C)CC3)cc2)cc1Nc1nccc(-c2cccnc2)n1 [imatinib]
right ventricular systolic pressure (RVSP) [7]: decreases
survival [7]: improves survival
potency against PDGFR isoforms [8]: less potent against the PDGFRβ isoform than the PDGFRα isoform
cardiopulmonary hemodynamics [9]: improves
